# Test results reported in patent US10662164B2, “Non-beta lactam antibiotics” (University of Notre Dame du Lac, priority 2014, dated 2020).
# Like-named read-outs stand apart in the source and are kept apart here.
# Assays:
# S. aureus ATCC 29213 = test: MIC determination; assay type: cell-based, Staphylococcus aureus; conditions: for MIC: Staphylococcus aureus; for antibacterial activity in words (SAR, ring A derivatives): S. aureus ATCC 29213, compounds of Schemes 3-4
# E. faecium NCTC 7171 = test: MIC determination; assay type: cell-based, Enterococcus faecium; conditions: for MIC: Enterococcus faecium
# [1] = ATCC29213, Table 3.1 and SAR text, compounds of Schemes 2-4, read-out: S. aureus ATCC 29213 MIC
# [2] = NCTC7171, Table 3.1, compounds of Schemes 2-4, read-out: E. faecium NCTC 7171 MIC
# [3] = Table 3.1, compounds of Schemes 2-4
SMILES,MIC (S. aureus ATCC 29213; [1]) [µg/mL],MIC (E. faecium NCTC 7171; [2]) [µg/mL],"antibacterial activity in words (SAR, ring A derivatives) (S. aureus ATCC 29213)",also measured
Fc1ccc(Oc2ccc(-c3noc(-c4ccc5[nH]ccc5c4)n3)cc2)cc1 [Compound 75c],2,2,–,–
Fc1ccc(Oc2ccc(-c3noc(-c4cnc[nH]4)n3)cc2)cc1 [Compound 76c],> 128,128,no activity,–
O=[N+]([O-])c1cc(-c2nc(-c3ccc(Oc4ccc(C(F)(F)F)cc4)cc3)no2)cnc1O [Compound 77b],8,4,–,–
O=[N+]([O-])c1cc(-c2nc(-c3ccc(Oc4ccc(F)cc4)cc3)no2)cnc1O [Compound 77c],8,4,–,–
O=[N+]([O-])c1c[nH]c(-c2nc(-c3ccc(Oc4ccc(C(F)(F)F)cc4)cc3)no2)c1 [Compound 78b],8,64,retained good activity,–
O=[N+]([O-])c1c[nH]c(-c2nc(-c3ccc(Oc4ccc(F)cc4)cc3)no2)c1 [Compound 78c],> 128,128,No activity,–
C=CCOc1cc(N)ncc1-c1nc(-c2ccc(Oc3ccccc3)cc2)no1 [Compound 79a],8,> 128,–,–
Fc1ccc(-c2nc(-c3ccc(Oc4ccccc4)cc3)no2)cc1 [Compound 80a],> 1000,–,–,–
Fc1ccc(-c2nc(-c3ccc(Oc4ccc(C(F)(F)F)cc4)cc3)no2)cc1 [Compound 80b],> 1200,–,–,–
FC(F)(F)c1ccc(Oc2ccc(-c3noc(-c4ccc(Br)cc4)n3)cc2)cc1 [Compound 81b],> 1000,–,–,–
Fc1ccc(Oc2ccc(-c3noc(-c4ccc(Br)cc4)n3)cc2)cc1 [Compound 81c],> 128,> 128,–,–
CC(=O)Nc1ccc(-c2nc(-c3ccc(Oc4ccc(C(F)(F)F)cc4)cc3)no2)cc1 [Compound 83b],256,–,–,–
CCOP(=O)(OCC)c1ccc(-c2nc(-c3ccc(Oc4ccc(F)cc4)cc3)no2)cc1 [Compound 85c],–,–,–,"MIC (S. aureus ATCC 29213; ATCC29213, read-out: S. aureus ATCC 29213 MIC): > 128 µg/mL; MIC (E. faecium NCTC 7171; NCTC7171, read-out: E. faecium NCTC 7171 MIC): > 128 µg/mL"
CS(=O)(=O)Nc1ccc(-c2nc(-c3ccc(Oc4ccc(C(F)(F)F)cc4)cc3)no2)cc1 [Compound 86b],> 128,32,–,–
NS(=O)(=O)c1ccc(-c2nc(-c3ccc(Oc4ccc(C(F)(F)F)cc4)cc3)no2)cc1 [Compound 87b],> 128,128,–,–
NS(=O)(=O)c1ccc(-c2nc(-c3ccc(Oc4ccc(F)cc4)cc3)no2)cc1 [Compound 87c],> 128,> 128,–,–
NC(=O)c1ccc(-c2nc(-c3ccc(Oc4ccc(F)cc4)cc3)no2)cc1 [Compound 88c],> 128,64,failed to show significant activity,–
O=C(O)c1ccc(-c2nc(-c3ccc(Oc4ccc(F)cc4)cc3)no2)cc1 [Compound 89c],> 128,128,failed to show significant activity,–
COC(=O)c1ccc(-c2nc(-c3ccc(Oc4ccc(F)cc4)cc3)no2)cc1 [Compound 90c],> 128,> 128,failed to show significant activity,–
O=[N+]([O-])c1cc(-c2nc(-c3ccc(Oc4ccc(F)cc4)cc3)no2)ccc1O [Compound 91c],> 128,> 128,failed to show significant activity,–
Nc1cc(-c2nc(-c3ccc(Oc4ccc(F)cc4)cc3)no2)ccc1O [Compound 92c],> 128,128,failed to show significant activity,–
COc1cc(-c2nc(-c3ccc(Oc4ccccc4)cc3)no2)ccc1N [Compound 94a],> 128,> 128,–,–
Oc1cccc(-c2nc(-c3ccc(Oc4ccccc4)cc3)no2)c1 [Compound 95a],> 128,> 128,failed to show significant activity,–
Cl.c1ccc(Oc2ccc(-c3noc(C4CCNCC4)n3)cc2)cc1 [Compound 128a],–,–,–,E. faecium NCTC 7171 MIC (E. faecium NCTC 7171; [3]): 16 µg/mL
Cl.c1ccc(Oc2ccc(-c3noc(C4CCCN4)n3)cc2)cc1 (stereo not shown) [Compound 132a],–,–,–,E. faecium NCTC 7171 MIC (E. faecium NCTC 7171; [3]): 64 µg/mL
O=C1C[C@H](c2nc(-c3ccc(Oc4ccc(C(F)(F)F)cc4)cc3)no2)CN1 [Compound 133b],–,> 128,–,–
O=C1C[C@@H](c2nc(-c3ccc(Oc4ccc(C(F)(F)F)cc4)cc3)no2)CN1 [Compound 134b],–,> 128,–,–
O=c1cc(-c2nc(-c3ccc(Oc4ccc(C(F)(F)F)cc4)cc3)no2)[nH]c(=O)[nH]1 [Compound 135b],–,> 128,–,–
Cl.NC(Cc1ccccc1)c1nc(-c2ccc(Oc3ccccc3)cc2)no1 (stereo not shown) [Compound 136a],–,–,–,E. faecium NCTC 7171 MIC (E. faecium NCTC 7171; [3]): >128 µg/mL
Oc1ccc(-c2nc(-c3ccc(OC4CCCC4)cc3)no2)cc1 [DR-03-235],–,–,–,"MIC S. aureus ATCC 29213 MH (S. aureus ATCC 29213; Mueller Hinton broth, Table 2.2, in µg/mL): 0.5-1"
